Data reported in ChEMBL document CHEMBL4673352, “Discovery of AZD4573, a Potent and Selective Inhibitor of CDK9 That Enables Short Duration of Target Engagement for the Treatment of Hematological Malignancies” (J Med Chem, 2020).
≈ marks a conversion by molar mass, not a printed value.

Experiments:
[1] = Intrinsic clearance in human liver microsome; format: ADME, microsomes; conditions: liver microsomes, read-out: CLH
[2] = Solubility of compound in pH 7.4 PBS buffer using crystalline form of sample; format: physicochemical
[3] = Volume of distribution at steady state in Beagle dog at 5.2 umol/kg, iv administered as 0.25 hrs infusion; format: ADME, organism-based, Canis lupus familiaris; conditions: in vivo, dose 5.2 µmol/kg, read-out: Vdss
[4] = Solubility of compound in phosphate buffer at pH 7.4 using dried form of sample; format: physicochemical; conditions: phosphate buffer, read-out: solubility
[5] = Intrinsic clearance in dog cryopreserved hepatocytes assessed per million cells […]; format: ADME, cell-based, Canis lupus familiaris, Hepatocyte; conditions: read-out: CLH
[6] = Volume of distribution at steady state in mouse at 5.2 umol/kg, iv formulated as solution; format: ADME, organism-based; conditions: in vivo, dose 5.2 µmol/kg, read-out: Vdss
[7] = Half-life in Beagle dog at 5.2 umol/kg, iv administered as 0.25 hrs infusion; format: ADME, organism-based, Canis lupus familiaris; conditions: in vivo, dose 5.2 µmol/kg
[8] = Intrinsic clearance in mouse cryopreserved hepatocytes assessed per million cells […]; format: ADME, cell-based, Hepatocyte; conditions: read-out: CLH
[9] = Half-life in Han Wistar rat at […], iv formulated as solution; format: ADME, organism-based; conditions: in vivo, dose 1.3 µmol/kg
[10] = Solubility of compound in pH 4 0.1 M acetate buffer using crystalline form of sample; format: physicochemical
[11] = Lipophilicity, log D of compound in buffer/octanol at pH 7.4 by shake flask method; format: physicochemical
[12] = Half-life in mouse at 5.2 umol/kg, iv formulated as solution; format: ADME, organism-based; conditions: in vivo, dose 5.2 µmol/kg
[13] = Clearance in Han Wistar rat plasma at […], iv formulated as solution; format: ADME, organism-based; conditions: dose 1.3 µmol/kg
[14] = Volume of distribution at steady state in Han Wistar rat at […], iv formulated as solution; format: ADME, organism-based; conditions: in vivo, dose 1.3 µmol/kg, read-out: Vdss
[15] = Clearance in mouse plasma at 5.2 umol/kg, iv formulated as solution; format: ADME, organism-based; conditions: dose 5.2 µmol/kg
[16] = Clearance in Beagle dog plasma at 5.2 umol/kg, iv administered as 0.25 hrs infusion; format: ADME, organism-based, Canis lupus familiaris; conditions: dose 5.2 µmol/kg
[17] = Intrinsic clearance in human cryopreserved hepatocytes assessed per million cells […]; format: ADME, cell-based, Hepatocyte; conditions: read-out: CLH
[18] = Intrinsic clearance in rat cryopreserved hepatocytes assessed per million cells […]; format: ADME, cell-based, Hepatocyte; conditions: cryopreserved hepatocytes, read-out: CLH

microsomal CLint [1]: 12 µL/min/mg
solubility thermodynamic [2]: 7.5 µM (≈ 2.89 µg/mL)
Vd [3]: 0.62 L/kg
solubility [4]: 33 µM (≈ 12.7 µg/mL)
hepatocyte CLint [5]: 5.9 µL/min/1e6 cells
Vd [6]: 1.1 L/kg
half-life [7]: 60 min
hepatocyte CLint [8]: 52 µL/min/1e6 cells
half-life [9]: 13.2 min
solubility thermodynamic [10]: 24 µM (≈ 9.25 µg/mL)
logD [11]: 3
half-life [12]: 15.6 min
clearance [13]: 4.62 L/h/kg
Vd [14]: 1.3 L/kg
clearance [15]: 2.4 L/h/kg
clearance [16]: 0.45 L/h/kg
hepatocyte CLint [17]: 1.4 µL/min/1e6 cells
hepatocyte CLint [18]: 58 µL/min/1e6 cells
Structure (SMILES): COc1cc(F)ccc1-c1ccnc(NC(=O)[C@H]2CCC[C@@H](NC(C)=O)C2)c1
